“Also recorded” adds a separate entry of the source. Where two headings read alike, the source gives them in different places.
Assays:
[1] = test system: CHO cells; test: Transfection of CHO cells with pCMV-Luc DNA:lipid complexes, luciferase activity; type: cell-based, Chinese Hamster; details: for luciferase activity (transfection activity): 1 μg pCMV-Luc DNA, liposomes DOPE:cationic lipid 1:1 mol:mol, absence of serum, 36 hours after transfection
[2] = test system: CHO cells
[3] = test system: CHO cells; test: Toxicity of lipids: protein per well 36 hours after transfection, CHO cells
[4] = test system: HeLa; test: Transfection of HeLa cells; type: cell-based; details: data not shown
Procedure: (§1) Lipid 5 was further compared with DC-Chol by transfecting BL6 cells with lipid 5- or DC-Chol-containing DNA:lipid complexes (FIGS. 7 and 8 respectively). […] Lipid 5 was also tested in several cell lines including HeLa, Siha and Caski which are somewhat difficult to transfect when compared with CHO or 293 cells.

[5] = test system: BL6 cells; test: Toxicity of lipids: protein per well 36 hours after transfection, BL6 cells; type: cell-based, murine; details: DOPE:lipid 1:1, FIG. 10
Procedure: Toxicity was assayed by measuring the amount of protein remaining in each well 36 hours after treatment with the indicated amount of liposome.
The toxicity of lipids was assayed by measuring the protein concentration in each well by Coomassie blue reagent (Píerce) 36 hours after transfection. Greater concentrations of protein per well indicated less toxicity of the tested lipids.
FIGS. 9 and 10 show the toxicity of lipid 5 compared to that of DC-Chol in CHO and BL6 cells respectively, where toxicity was assessed by measuring the amount of protein in each well after transfection of cells with DNA:lipid complexes formulated by mixing DNA and liposomes containing DOPE and DC-Chol or DOPE and lipids.

[6] = test system: CHO cells; test: Serum sensitivity of transfection of CHO cells; type: cell-based, Chinese Hamster; details: 1 μg DNA, 10% serum
[7] = test system: 293 cells; test: Transfection of 293 cells with pCMV-Luc DNA:lipid complexes, luciferase activity; type: cell-based, human; details: DOPE:lipid 1:1 mol:mol, FIG. 7
Procedure: (§2) 2 μmol of Lipid dissolved in chloroform was transferred to a test tube. A solution of DOPE (2 umol) in chloroform was then added to this test tube. The chloroform was evaporated by passing a stream of nitrogen through the test tube to obtain a thin film of at the bottom of the test tube. Further drying was done in a desiccator under high vacuum for 30 minutes. 2 ml of distilled water was then added to the test tubes. The test tubes were stoppered and vortexed for one minute followed by sonication until the size of the particles was between 100 to 200 nm. The size of the particles was measured by Coulter particle size analyzer.
(§3) CHO, 293 and BL6 cells were obtained from the American Type Culture Collection (ATCC). Chinese Hamster Ovarian (“CHO”) cells were maintained in F-12 nutrient medium supplemented with 10% fetal bovine serum, antibiotics (1% penicillin-streptomycin) and 1% glutamine; human embryonic kidney 293 cells and murine melanoma BL6 cells were cultured in DMEM medium supplemented with 10% fetal bovine serum, antibiotics (1% penicillin-streptomycin) and 1% glutamine. […]
(§4) Luciferase activity was assayed by measuring the luminescence obtained after adding the substrate (Promega) to in aliquot of lysate. This luminescence was measured in a luminometer for 25 seconds.

[8] = test system: Siha; test: Transfection of Siha cells; type: cell-based; details: data not shown
Procedure: as §1

[9] = test system: Caski; test: Transfection of Caski cells; type: cell-based; details: data not shown
Procedure: as §1

[10] = test system: Mice; test: In vivo transfection with pCMV-Luc DNA:lipid complexes; details: intratumoral or intravenous, 30 μg pCMV-Luc DNA with 30 nmols liposomal lipid (1:1 lipid 5:DOPE), 1-5 days
Procedure: Mice are injected intratumorally or intravenously with 50 μl of solution containing pCMV-Luc DNA (30 μg) complexed with 30 nmols of liposomal lipid (1:1 mol/mol lipid 5:DOPE). Animals are sacrificed 1-5 days later and extracts from tumor tissue (intratumor injection) or lung, liver and blood (intravenous injection) are assayed for luciferase activity and protein levels.

[11] = test system: BL6 cells; test: Transfection of BL6 cells with pCMV-Luc DNA:lipid complexes, luciferase activity; type: cell-based, murine; details: DOPE:lipid 1:1 mol:mol, FIG. 8
Procedure: as §2, §3, §4

[12] = Stability of liposomes, retention of diameter over time; type: physicochemical; details: all lipid 5:DOPE ratios shown in FIG. 11
Procedure: as §2
The X axis of FIG. 11 refers to the total liposomal lipid mixed with 1 μg pCMV-Luc DNA:lipid complexes.

## CC(C)CCC[C@@H](C)[C@H]1CC[C@H]2[C@@H]3CC=C4C[C@@H](OC(=O)NCCN5CCNCC5)CC[C@]4(C)[C@H]3CC[C@]12C [lipid 2, 4{N-2-ethylamino[(3′-β-cholesteryl)carbamoyl]}piperazine]
[1]
  luciferase activity (transfection activity): low activity

## CC(C)CCC[C@@H](C)[C@H]1CC[C@H]2[C@@H]3CC=C4C[C@@H](OC(=O)NCCN5CCCCC5)CC[C@]4(C)[C@H]3CC[C@]12C [lipid 7, {N-2-ethylamino[(3′-β-cholesteryl)carbamoyl]}piperidine]
[1]
  luciferase activity (transfection activity): less active than DC-Chol
[2]
  toxicity relative to DC-Chol: less toxic than DC-Chol

## CC(C)CCC[C@@H](C)[C@H]1CC[C@H]2[C@@H]3CC=C4C[C@@H](OC(=O)NCCN5CCCC5)CC[C@]4(C)[C@H]3CC[C@]12C [lipid 6, {N-2-ethylamino[(3′-β-cholesteryl)carbamoyl]}pyrrolidine]
[1]
  luciferase activity (transfection activity): less active than DC-Chol
[2]
  toxicity relative to DC-Chol: less toxic than DC-Chol

## CC(C)CCC[C@@H](C)[C@H]1CC[C@H]2[C@@H]3CC=C4C[C@@H](OC(=O)NCCN(C)C)CC[C@]4(C)[C@H]3CC[C@]12C [DC-Chol, 3β [N-(N′,N′-dimethylaminoethane)carbamoyl] cholesterol, reference compound]
[1]
  luciferase activity (transfection activity): lipid 5>DC-Chol>lipid 4
[3]; cell line (CHO or BL6) not specified, data not shown
  appearance of transfected cells observed under microscope: some necrosis

## pyridyl (ethyl) carbamoyl cholesteryl [lipid PY]
[1]
  luciferase activity (transfection activity): much less active
[3]
  toxicity relative to DC-Chol: comparable toxicity to DC-Chol

## (imidazole) propyl carbamoyl cholesteryl [lipid IM]
[1]
  luciferase activity (transfection activity): slightly less active than DC-Chol

## CC(C)CCC[C@@H](C)[C@H]1CC[C@H]2[C@@H]3CC=C4C[C@@H](OC(=O)NN5CCN(C)CC5)CC[C@]4(C)[C@H]3CC[C@]12C [lipid 5, N-methyl{4-N-amino[(3′-β-cholesteryl)carbamoyl]}piperazine]
[4]
  ability to transfect cells: slightly better than DC-Chol
[5]
  toxicity: amount of protein in each well after transfection: more protein than cells transfected with DC-Chol-containing complex
[6]; 5 nmol lipid 5 (1:1 with DOPE)
  activity retained relative to the 0% serum complexes: approximately 40%
[6]; 10 nmol lipid 5 (1:1 with DOPE)
  activity retained relative to the 0% serum complexes: approximately 40%
[6]; 20 nmol lipid 5 (1:1 with DOPE)
  activity retained relative to the 0% serum complexes: 10%
[7]
  luciferase activity (transfection activity): almost equally as active as DC-Chol
[8]
  ability to transfect cells: slightly better than DC-Chol
[9]
  ability to transfect cells: slightly better than DC-Chol
[10]
  in vivo transfection activity (luciferase in tissue extracts): exhibit in vivo transfection activity
[1]
  luciferase activity (transfection activity): lipid 5>DC-Chol>lipid 4; also recorded: high activity
[1]; lipid 5:DOPE ratio of 2:8, FIG. 11
  transfection activity (luciferase): less activity
[1]; lipid 5:DOPE ratio of 4:6, FIG. 11
  transfection activity (luciferase): very similar transfection activities
[1]; lipid 5:DOPE ratio of 5:5, FIG. 11
  transfection activity (luciferase): very similar transfection activities
[1]; lipid 5:DOPE ratio of 6:4, FIG. 11
  transfection activity (luciferase): highest activity among all complexes
[1]; lipid 5:DOPE ratio of 8:2, FIG. 11
  transfection activity (luciferase): less activity
[11]
  luciferase activity (transfection activity): almost equally as active as DC-Chol
[3]
  toxicity relative to DC-Chol: reduced toxicity
[3]; CHO cells, DOPE:lipid 1:1, 36 hours, FIG. 9
  toxicity: amount of protein in each well after transfection: more protein than cells transfected with DC-Chol-containing complex
[12]
  liposome stability (retention of diameter over time): stable liposomes
[2]
  appearance of transfected cells observed under microscope: healthy

## CC(C)CCC[C@@H](C)[C@H]1CC[C@H]2[C@@H]3CC=C4C[C@@H](OC(=O)NCCN5CCOCC5)CC[C@]4(C)[C@H]3CC[C@]12C [lipid 3, {N-2-ethylamino[(3′-β-cholesteryl)carbamoyl]}morpholine]
[1]
  luciferase activity (transfection activity): low activity

## CC(C)CCC[C@@H](C)[C@H]1CC[C@H]2[C@@H]3CC=C4C[C@@H](OC(=O)NCCCN5CCOCC5)CC[C@]4(C)[C@H]3CC[C@]12C [lipid 4]
[1]
  luciferase activity (transfection activity): lipid 5>DC-Chol>lipid 4; also recorded: reasonable activity
